From ChEMBL document CHEMBL1144788, “Insect growth regulatory effects of linear diterpenoids and derivatives from Baccharis thymifolia” (2008) come the findings set out here.

The structures appear in SMILES notation.

By Inhibition is commonly meant the share of the control response that was lost under treatment.

In experiment [1] the test system is Tenebrio molitor. As to the kind of experiment: Growth inhibition of topically dosed Tenebrio molitor larvae assessed as duration of pupal instar stage at 120 ug measured every 24 hrs for 60 days. It is filed as functional.
In experiment [2] the test system is Tenebrio molitor. As to the kind of experiment: Growth inhibition of topically dosed Tenebrio molitor larvae assessed as imaginal molt inhibition at 120 ug. It is filed as functional.

In the case of `COC(=O)/C(=C/CCc1ccoc1)CC/C=C(\CC[C@H](O)C(C)(C)O)C(=O)OC`, the Activity in the experiment on Tenebrio molitor [1] was found to be 12.1 days.
Take `COC(=O)/C(=C/CC/C(=C\CCc1ccoc1)C(=O)OC)CCC=C(C)C`: in the experiment with Tenebrio molitor [1], the Activity worked out at 7.4 days. The Inhibition in the experiment with Tenebrio molitor [2] is 34.3%.
Regarding `CC(C)=CCC/C(=C\CC/C(=C\CCC1=CCOC1=O)C(=O)O)C(=O)O`, the Activity in the experiment with Tenebrio molitor [1] was 5.09 days. The Inhibition in the experiment on Tenebrio molitor [2] was found to be 24.1%.
Take `CC(C)=CCC/C(=C\CC/C(=C\CCc1ccoc1)C(=O)O)C(=O)O`: the Activity in the experiment on Tenebrio molitor [1] was found to be 10.7 days. In addition, in the experiment on Tenebrio molitor [2], the Inhibition is on record as 33.6%.
The matching figures for `CC(C)=CCC[C@](O)(CO)[C@H]1CC/C(=C\CCc2ccoc2)CO1`: 16.2 days and 14.4%.
As to `CC(C)=CCC/C(=C/CC/C(=C\CCc1ccoc1)C(=O)O)C(=O)O`, in the experiment with Tenebrio molitor [1], the Activity was 4.7 days.
Regarding `CC(C)=CCC/C(=C\CC/C(=C\CCc1ccoc1)CO)CO`, the Activity with Tenebrio molitor [1] came to 5.3 days.
With `COC(=O)/C(=C\CC/C(=C\CCc1ccoc1)C(=O)OC)CC[C@H](O)C(C)(C)O`, the Activity in the experiment with Tenebrio molitor [1] came to 10 days.
With `COC(=O)/C(=C/CCc1ccoc1)CC/C=C1\CC[C@H](C(C)(C)O)OC1=O`, the Activity in the experiment with Tenebrio molitor [1] amounted to 11.2 days.
On the same count and under the same terms, with `COC(=O)/C(=C\CC/C(=C\CCc1ccoc1)C(=O)OC)CC[C@@H](O)C(C)(C)O` the figure was 11.2 days.
For the compound `COC(=O)/C(=C/CCc1ccoc1)CC/C=C(\CC[C@@H](O)C(C)(C)O)C(=O)OC`, the Activity in the experiment with Tenebrio molitor [1] turned out to be 12 days.
Regarding `COC(=O)/C(=C\CC/C(=C\CCc1ccoc1)C(=O)OC)CCC=C(C)C`, in the experiment on Tenebrio molitor [1], the Activity turned out to be 6 days.
Same read-out and setting: the figure for `CC(C)=CCC[C@@](O)(CO)[C@@H]1CC/C(=C\CCc2ccoc2)CO1` is 12 days.
Take `CC(C)=CCC[C@](O)(CO)[C@H]1CC[C@@]2(CO1)OC2CCc1ccoc1` (single isomer, unassigned): in the experiment on Tenebrio molitor [1], the Activity came out at 9.9 days. In the experiment on Tenebrio molitor [2], the Inhibition came to 30.8%.
`CC(C)=CCC[C@@]1(CO)OC1CC[C@@]1(CO)OC1CCc1ccoc1` (single isomer, unassigned): the Activity in the experiment on Tenebrio molitor [1] stood at 12.7 days.
Turning to `CC(C)=CCC[C@@](O)(CO)[C@@H]1CC[C@]2(CO1)OC2CCc1ccoc1` (single isomer, unassigned), in the experiment with Tenebrio molitor [1], the Activity was 10.6 days.
